Drawing on ChEMBL document CHEMBL3217735, “Polyamine-based small molecule epigenetic modulators” (Medchemcomm, 2012), this text covers IC50, selectivity ratio and inhibition for three compounds.

SMILES strings stand for the structures.

The test system of one series is MCF7. Briefly: Cytotoxicity against human MCF7 cells after 96 hrs by MTA reduction assay. Conditions: MCF7, 96 h. It counts as functional, cell-based.
Series [1] in a line: Cytotoxicity against human MCF10A cells after 96 hrs by MTA reduction assay. It counts as ADME, cell-based. To be noted: MCF-10A.
Series [2] is described as follows: Selectivity ratio of IC50 for human MCF10A cells to IC50 for human MCF7 cells. The class given is ADME, cell-based, MCF-10A. Conditions: MCF10A cells versus MCF7 cells, read-out: Ratio IC50.
In series [3] the target is Histone deacetylase (Homo sapiens) (UniProt Q13547+O15379+Q9UBN7+Q92769+Q9UQL6+Q8WUI4+Q9BY41+Q96DB2+P56524+Q9UKV0+Q969S8). Briefly: Inhibition of HDAC in human HeLa cells using Fluor de Lys as substrate at 1 uM by fluorescence assay relative to control. The class given is cell-based.
For series [4], the target named is Lysine-specific histone demethylase 1A (Homo sapiens) (UniProt O60341). Briefly: Inhibition of N-terminal His6-tagged full length human LSD1 expressed in Escherichia coli BL21 (DE3) using H3K4me2 (1 to 21 amino acids) as substrate assessed as production of H2O2 at 1 uM by luminol-dependent chemiluminescence assay relative to control.

In the case of `Cc1ccc(CNCCCCNCCCCCC(=O)NCc2ccc(C(=O)Nc3ccccc3N)cc2)cc1`, the IC50 with MCF7 worked out at 0.9 µM; in series [1], 24 µM. For the same compound, in series [2], the selectivity ratio is greater than 25. As to `CN(C)c1ccc(CN(CCCNCCCCN)C(=O)CCCCC(=O)NO)cc1`, in series [3], the inhibition came out at 60%. On to `C/N=C(\NC)NCCCNCCCNCCCN/C(=N/C)NC`, for which the inhibition in series [4] was determined as 85.1%.
